Data from PubChem BioAssay (NCI).
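Protocol summary: plate cells (96-well), add compound at 5 concentrations, incubate 48 h, interpolate endpoints linearly. GI50 is the concentration that inhibits growth by half. At the TGI there is no net growth.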

What was measured:
Assay in all cases: NCI tumour cell line growth inhibition, 48 h
CCRF-CEM leukemia = test system: CCRF-CEM leukemia
MALME-3M melanoma = test system: MALME-3M melanoma
COLO 205 colon = test system: COLO 205 colon
M14 melanoma = test system: M14 melanoma
K-562 leukemia = test system: K-562 leukemia
MCF7 breast = test system: MCF7 breast
TK-10 renal = test system: TK-10 renal
OVCAR-4 ovarian = test system: OVCAR-4 ovarian
HS 578T breast = test system: HS 578T breast
SF-295 CNS = test system: SF-295 CNS
DU-145 prostate = test system: DU-145 prostate
HCT-15 colon = test system: HCT-15 colon
CAKI-1 renal = test system: CAKI-1 renal
OVCAR-5 ovarian = test system: OVCAR-5 ovarian
ACHN renal = test system: ACHN renal
RXF 393 renal = test system: RXF 393 renal
SNB-75 CNS = test system: SNB-75 CNS
SK-MEL-5 melanoma = test system: SK-MEL-5 melanoma
SR leukemia = test system: SR leukemia
OVCAR-3 ovarian = test system: OVCAR-3 ovarian
NCI-H226 lung = test system: NCI-H226 lung
HOP-62 NSCLC = test system: HOP-62 NSCLC
HOP-92 NSCLC = test system: HOP-92 NSCLC
HL-60(TB) leukemia = test system: HL-60(TB) leukemia
SF-268 CNS = test system: SF-268 CNS
U251 CNS = test system: U251 CNS
A549 NSCLC = test system: A549 NSCLC
RPMI-8226 leukemia = test system: RPMI-8226 leukemia
OVCAR-8 ovarian = test system: OVCAR-8 ovarian
SK-OV-3 ovarian = test system: SK-OV-3 ovarian
HT29 colon = test system: HT29 colon
MDA-MB-231 breast = test system: MDA-MB-231 breast
MOLT-4 leukemia = test system: MOLT-4 leukemia
NCI-H522 lung = test system: NCI-H522 lung
LOX IMVI melanoma = test system: LOX IMVI melanoma
SN12C renal = test system: SN12C renal
HCT-116 colon = test system: HCT-116 colon
UO-31 renal = test system: UO-31 renal
NCI/ADR-RES ovarian = test system: NCI/ADR-RES ovarian
A498 renal = test system: A498 renal
NCI-H460 lung = test system: NCI-H460 lung
IGROV1 ovarian = test system: IGROV1 ovarian
BT-549 breast = test system: BT-549 breast
T-47D breast = test system: T-47D breast
NCI-H23 lung = test system: NCI-H23 lung
SW-620 colon = test system: SW-620 colon
UACC-257 melanoma = test system: UACC-257 melanoma
MDA-MB-435 = test system: MDA-MB-435
786-0 renal = test system: 786-0 renal
UACC-62 melanoma = test system: UACC-62 melanoma
KM12 colon = test system: KM12 colon
SK-MEL-28 melanoma = test system: SK-MEL-28 melanoma
SK-MEL-2 melanoma = test system: SK-MEL-2 melanoma
SF-539 CNS = test system: SF-539 CNS
HCC-2998 colon = test system: HCC-2998 colon
SNB-19 CNS = test system: SNB-19 CNS
PC-3 prostate = test system: PC-3 prostate

NC(=S)N=Nc1c(O)c2ccccc2c2ccccc12
GI50 (CCRF-CEM leukemia): 28.6 µM | TGI (CCRF-CEM leukemia): > 71.6 µM | GI50 (MALME-3M melanoma): 1.96 µM | TGI (MALME-3M melanoma): 3.58 µM | GI50 (COLO 205 colon): 22.8 µM | TGI (COLO 205 colon): 73.6 µM | GI50 (M14 melanoma): 1.78 µM | TGI (M14 melanoma): 3.35 µM | GI50 (K-562 leukemia): 5.98 µM | TGI (K-562 leukemia): 28.3 µM | GI50 (MCF7 breast): 1.88 µM | TGI (MCF7 breast): 4.54 µM | GI50 (TK-10 renal): 44.6 µM | TGI (TK-10 renal): > 94.1 µM | GI50 (OVCAR-4 ovarian): 13 µM | TGI (OVCAR-4 ovarian): 37 µM | GI50 (HS 578T breast): 2.17 µM | TGI (HS 578T breast): 7.96 µM | GI50 (SF-295 CNS): 3.01 µM | TGI (SF-295 CNS): 10.2 µM | GI50 (DU-145 prostate): 1.9 µM | TGI (DU-145 prostate): 3.36 µM | GI50 (HCT-15 colon): 3.22 µM | TGI (HCT-15 colon): > 55.4 µM | GI50 (CAKI-1 renal): 37.9 µM | TGI (CAKI-1 renal): > 100 µM | GI50 (OVCAR-5 ovarian): 2.45 µM | TGI (OVCAR-5 ovarian): 6.94 µM | GI50 (ACHN renal): 8.07 µM | TGI (ACHN renal): > 100 µM | GI50 (RXF 393 renal): 18.7 µM | TGI (RXF 393 renal): 44.7 µM | GI50 (SNB-75 CNS): 1.34 µM | TGI (SNB-75 CNS): 3.24 µM | GI50 (SK-MEL-5 melanoma): 1.41 µM | TGI (SK-MEL-5 melanoma): 2.9 µM | GI50 (SR leukemia): 9.64 µM | TGI (SR leukemia): 35.8 µM | GI50 (OVCAR-3 ovarian): 3.02 µM | TGI (OVCAR-3 ovarian): 10.2 µM | GI50 (NCI-H226 lung): 21.3 µM | TGI (NCI-H226 lung): 70.1 µM | GI50 (HOP-62 NSCLC): 2.31 µM | TGI (HOP-62 NSCLC): 7.87 µM | GI50 (HOP-92 NSCLC): 18.4 µM | TGI (HOP-92 NSCLC): 51.6 µM | GI50 (HL-60(TB) leukemia): 20 µM | TGI (HL-60(TB) leukemia): 46 µM | GI50 (SF-268 CNS): 10.2 µM | TGI (SF-268 CNS): 35.7 µM | GI50 (U251 CNS): 3.07 µM | TGI (U251 CNS): 11.4 µM | GI50 (A549 NSCLC): 3.44 µM | TGI (A549 NSCLC): 12.1 µM | GI50 (RPMI-8226 leukemia): 9.73 µM | TGI (RPMI-8226 leukemia): > 100 µM | GI50 (OVCAR-8 ovarian): 4.32 µM | TGI (OVCAR-8 ovarian): 22.7 µM | GI50 (SK-OV-3 ovarian): 21.5 µM | TGI (SK-OV-3 ovarian): 54.2 µM | GI50 (HT29 colon): 19.3 µM | TGI (HT29 colon): > 100 µM | GI50 (MDA-MB-231 breast): 16.1 µM | TGI (MDA-MB-231 breast): 60.2 µM | GI50 (MOLT-4 leukemia): 33.7 µM | TGI (MOLT-4 leukemia): > 73.5 µM | GI50 (NCI-H522 lung): 3.22 µM | TGI (NCI-H522 lung): 9.66 µM | GI50 (LOX IMVI melanoma): 2.81 µM | TGI (LOX IMVI melanoma): 11.1 µM | GI50 (SN12C renal): 1.73 µM | TGI (SN12C renal): 3.47 µM | GI50 (HCT-116 colon): 4.35 µM | TGI (HCT-116 colon): 51.5 µM | GI50 (UO-31 renal): 3.26 µM | TGI (UO-31 renal): > 76.1 µM | GI50 (NCI/ADR-RES ovarian): 4.3 µM | TGI (NCI/ADR-RES ovarian): 27 µM | GI50 (A498 renal): 14.9 µM | TGI (A498 renal): 45.7 µM | GI50 (NCI-H460 lung): 3.23 µM | TGI (NCI-H460 lung): 11.6 µM | GI50 (IGROV1 ovarian): 27.2 µM | TGI (IGROV1 ovarian): > 100 µM | GI50 (BT-549 breast): 1.97 µM | TGI (BT-549 breast): 4.95 µM | GI50 (T-47D breast): 14 µM | TGI (T-47D breast): > 100 µM | GI50 (NCI-H23 lung): 2.26 µM | TGI (NCI-H23 lung): 6.1 µM | GI50 (SW-620 colon): 3.44 µM | TGI (SW-620 colon): 26.6 µM | GI50 (UACC-257 melanoma): 1.72 µM | TGI (UACC-257 melanoma): 3.31 µM | GI50 (MDA-MB-435): 1.85 µM | TGI (MDA-MB-435): 3.45 µM | GI50 (786-0 renal): 31.7 µM | TGI (786-0 renal): 88.2 µM | GI50 (UACC-62 melanoma): 1.69 µM | TGI (UACC-62 melanoma): 3.19 µM | GI50 (KM12 colon): 48.2 µM | TGI (KM12 colon): > 100 µM | GI50 (SK-MEL-28 melanoma): 2.98 µM | TGI (SK-MEL-28 melanoma): 10 µM | GI50 (SK-MEL-2 melanoma): 14.9 µM | TGI (SK-MEL-2 melanoma): 33.8 µM | GI50 (SF-539 CNS): 2.48 µM | TGI (SF-539 CNS): 9.16 µM | GI50 (HCC-2998 colon): 36.3 µM | TGI (HCC-2998 colon): > 100 µM | GI50 (SNB-19 CNS): 3.12 µM | TGI (SNB-19 CNS): 12.6 µM | GI50 (PC-3 prostate): 9.05 µM | TGI (PC-3 prostate): 66.6 µM
